The values that follow come from PubChem BioAssay (NCI).

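Growth conditions: 96-well plates. Treatment: test compound, 48 hours, 5 concentrations. Analysis: linear interpolation between bracketing concentrations; unreached endpoints set to highest concentration. At the TGI there is no net growth.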

The first assay concerns EKVX NSCLC. The assay is described as follows: DTP human tumour cell line panel, 48 h.
A word on the TGI: it is the concentration giving total growth inhibition. Higher therefore signals less potent growth arrest. Regarding `COc1nc(N)c(C(=O)CCl)c(=O)n1C`, the TGI is 31.7 µM.

Consider `CC1C=C(CCCCCCCCCCCC[C@@H](O)[C@@H]2CC[C@@H]([C@@H]3CC[C@@H](C(O)CCCCCCCCCCCCC4=C[C@H](C)OC4=O)O3)O2)C(=O)O1` (stereo partly drawn), for which the TGI is more than 100 µM.

`CNC(=O)OCC1=C(COC(=O)NC)C(C)N(c2ccc(OC)cc2)C1` (stereo not drawn): the TGI was more than 100 µM.

The molecule `O=C1c2ccccc2C2C1N2C(=O)C(F)(F)F` (stereo not drawn) displayed a TGI of more than 100 µM.

As for `CC(=O)NC1=C(NCCC(C)C)C(=O)c2ccccc2C1=O`, the TGI is more than 50 µM.

The molecule `O=S1(=O)NC(=NCc2c[nH]c3ccccc23)N(c2ccccc2)c2ccncc21` had a TGI of more than 100 µM.

The molecule `CC(=O)NNc1nc(C)c(C(=O)NNC(=O)C(=O)Nc2c(Cl)cc([N+](=O)[O-])cc2Cl)s1` had a TGI of more than 100 µM.

`CCOC(=O)C1=C(C)NC(=S)NC1c1ccccc1` (stereo not drawn) registered a TGI of more than 100 µM.

`N.N.N.N.O=[N+]([O-])[O-].[Co+3].[N-]=[N+]=[N-].[N-]=[N+]=[N-]` returned a TGI of more than 100 µM.

The molecule `CCC12C=CCN3CCC4(C(=C(C(=O)OC)[C@@H]1O)Nc1ccccc14)C32` (stereo partly drawn) gave a TGI of 3.92 µM.

For a further assay, the system named is K-562 leukemia. The assay is described as follows: DTP human tumour cell line panel, 48 h.
As to `COc1cc([C@@H]2OCC3C(c4ccc5c(c4)OCO5)OCC32)cc(OC)c1OC` (stereo partly drawn), the TGI is more than 100 µM.

As for `O=C1CCC23CC(C=CC=C12)n1c(=O)n(-c2ccccc2)c(=O)n13` (stereo not drawn), the TGI was more than 100 µM.

`C[C@]12CC[C@H](O)CC1=CC[C@@H]1C2CC[C@]2(C)C(=O)N(N)C(=O)CC12` (stereo partly drawn) had a TGI of more than 100 µM.

On to `Cc1ccccc1-n1c(=O)c2ncn(CCCl)c2n(-c2ccccc2C)c1=S`, for which the TGI is more than 100 µM.

In the case of `N#CN=C(N(Cc1ccccc1)Cc1ccccc1)N(Cc1ccccc1)Cc1ccccc1`, the TGI is more than 100 µM.

On to `[N-]=[N+]=Nc1cc(=O)oc2ccccc12`, for which the TGI is more than 100 µM.

`CCOC(=O)N1CCC2(CC1)C[C@](C)(C(C)=O)C(C)O2` (stereo partly drawn) came in with a TGI of more than 100 µM.

Molecule `CNC(=O)C(C)C1CCC2(C)C=CC(=O)C(C)=C2C1O` (stereo not drawn) displayed a TGI of more than 100 µM.

Take `COc1cc2c(cc1OC)C(c1ccccc1CCCCl)=NCC2`: the TGI is more than 100 µM.

`Cc1cccc2c(=O)cc(-c3ccccc3)[nH]c12`: the TGI is more than 100 µM.

The molecule `COc1cc([C@@H]2c3cc4c(cc3[C@@H](Nc3ccc([N+](=O)[O-])cc3C(=O)c3ccccc3)[C@H]3COC(=O)[C@H]23)OCO4)cc(OC)c1OC` yielded a TGI of more than 100 µM.

For `CCN(CC)CCC(=O)Nc1ccc2c(c1)C(=O)c1ccc(NC(=O)CCN(CC)CC)cc1C2=O`, the TGI was 14.8 µM.

Molecule `CC(C)c1ccc(/C=C2/C=C(c3ccc4ccccc4c3)OC2=O)cc1` gave a TGI of more than 85.3 µM.

In turn, `CC(C)CCCCCCCCCCCCC(=O)NCC(=O)NC1C(C)OC(Nc2ncnc3c2ncn3C)C(O)C1O` (stereo not drawn) displayed a TGI of more than 100 µM.

`CCCCCCCCCCCOc1ccc(C(=O)C(=O)c2ccc(OCCCCCCCCCCC)c(OCCCCCCCCCCC)c2)cc1OCCCCCCCCCCC` returned a total growth inhibition concentration (TGI) of more than 100 µM.

`CC(N)Cc1ccc(C(=O)Cl)cc1` (stereo not drawn) displayed a TGI of more than 100 µM.

Take `COc1nc(N)c(C(=O)CCl)c(=O)n1C`: the TGI is 34.3 µM.

As to `CC1C=C(CCCCCCCCCCCC[C@@H](O)[C@@H]2CC[C@@H]([C@@H]3CC[C@@H](C(O)CCCCCCCCCCCCC4=C[C@H](C)OC4=O)O3)O2)C(=O)O1` (stereo partly drawn), the TGI was more than 100 µM.

Molecule `CNC(=O)OCC1=C(COC(=O)NC)C(C)N(c2ccc(OC)cc2)C1` (stereo not drawn) came in with a total growth inhibition concentration (TGI) of more than 100 µM.

On to `O=C1c2ccccc2C2C1N2C(=O)C(F)(F)F` (stereo not drawn), for which the TGI was more than 100 µM.

`CC(=O)NC1=C(NCCC(C)C)C(=O)c2ccccc2C1=O` returned a TGI of more than 50 µM.

For `O=S1(=O)NC(=NCc2c[nH]c3ccccc23)N(c2ccccc2)c2ccncc21`, the TGI was more than 100 µM.

`CC(=O)NNc1nc(C)c(C(=O)NNC(=O)C(=O)Nc2c(Cl)cc([N+](=O)[O-])cc2Cl)s1` had a TGI of more than 100 µM.

With `CCOC(=O)C1=C(C)NC(=S)NC1c1ccccc1` (stereo not drawn), the TGI is more than 75.1 µM.

`N.N.N.N.O=[N+]([O-])[O-].[Co+3].[N-]=[N+]=[N-].[N-]=[N+]=[N-]` had a TGI of more than 100 µM.

`CCC12C=CCN3CCC4(C(=C(C(=O)OC)[C@@H]1O)Nc1ccccc14)C32` (stereo partly drawn) came in with a TGI of more than 26.9 µM.

Molecule `CC(=O)Nc1ccc(-c2nnc(SCC(=O)Nc3ccc([N+](=O)[O-])cc3)o2)cc1` had a TGI of more than 100 µM.

For another assay, the system named is NCI-H226 lung. The assay is described as follows: DTP human tumour cell line panel, 48 h.
Molecule `COc1cc([C@@H]2OCC3C(c4ccc5c(c4)OCO5)OCC32)cc(OC)c1OC` (stereo partly drawn) returned a TGI of more than 100 µM.

Consider `O=C1CCC23CC(C=CC=C12)n1c(=O)n(-c2ccccc2)c(=O)n13` (stereo not drawn), for which the TGI is more than 100 µM.

In the case of `C[C@]12CC[C@H](O)CC1=CC[C@@H]1C2CC[C@]2(C)C(=O)N(N)C(=O)CC12` (stereo partly drawn), the TGI was more than 100 µM.

`Cc1ccccc1-n1c(=O)c2ncn(CCCl)c2n(-c2ccccc2C)c1=S`: the total growth inhibition concentration (TGI) is more than 100 µM.

`N#CN=C(N(Cc1ccccc1)Cc1ccccc1)N(Cc1ccccc1)Cc1ccccc1` showed a TGI of more than 100 µM.

As to `[N-]=[N+]=Nc1cc(=O)oc2ccccc12`, the TGI was more than 100 µM.

Turning to `CCOC(=O)N1CCC2(CC1)C[C@](C)(C(C)=O)C(C)O2` (stereo partly drawn), the concentration for total growth inhibition (TGI) is more than 100 µM.

Consider `CNC(=O)C(C)C1CCC2(C)C=CC(=O)C(C)=C2C1O` (stereo not drawn), for which the TGI was more than 100 µM.

Take `COc1cc2c(cc1OC)C(c1ccccc1CCCCl)=NCC2`: the TGI was more than 100 µM.

Turning to `Cc1cccc2c(=O)cc(-c3ccccc3)[nH]c12`, the TGI is more than 100 µM.

Regarding `COc1cc([C@@H]2c3cc4c(cc3[C@@H](Nc3ccc([N+](=O)[O-])cc3C(=O)c3ccccc3)[C@H]3COC(=O)[C@H]23)OCO4)cc(OC)c1OC`, the TGI was more than 100 µM.

For the molecule `CCN(CC)CCC(=O)Nc1ccc2c(c1)C(=O)c1ccc(NC(=O)CCN(CC)CC)cc1C2=O`, the TGI was determined as 7.8 µM.

`CC(C)c1ccc(/C=C2/C=C(c3ccc4ccccc4c3)OC2=O)cc1` registered a TGI of more than 100 µM.

For `CC(C)CCCCCCCCCCCCC(=O)NCC(=O)NC1C(C)OC(Nc2ncnc3c2ncn3C)C(O)C1O` (stereo not drawn), the TGI amounted to 15.2 µM.

In turn, `CCCCCCCCCCCOc1ccc(C(=O)C(=O)c2ccc(OCCCCCCCCCCC)c(OCCCCCCCCCCC)c2)cc1OCCCCCCCCCCC` had a TGI of more than 100 µM.

The molecule `COc1nc(N)c(C(=O)CCl)c(=O)n1C` had a total growth inhibition concentration (TGI) of 20.5 µM.

Regarding `CC1C=C(CCCCCCCCCCCC[C@@H](O)[C@@H]2CC[C@@H]([C@@H]3CC[C@@H](C(O)CCCCCCCCCCCCC4=C[C@H](C)OC4=O)O3)O2)C(=O)O1` (stereo partly drawn), the TGI is more than 100 µM.

Turning to `CNC(=O)OCC1=C(COC(=O)NC)C(C)N(c2ccc(OC)cc2)C1` (stereo not drawn), the TGI was found to be 6.21 µM.

`O=C1c2ccccc2C2C1N2C(=O)C(F)(F)F` (stereo not drawn) displayed a TGI of more than 100 µM.

The molecule `CC(=O)NC1=C(NCCC(C)C)C(=O)c2ccccc2C1=O` had a TGI of more than 50 µM.

Molecule `O=S1(=O)NC(=NCc2c[nH]c3ccccc23)N(c2ccccc2)c2ccncc21` returned a TGI of more than 100 µM.

`CC(=O)NNc1nc(C)c(C(=O)NNC(=O)C(=O)Nc2c(Cl)cc([N+](=O)[O-])cc2Cl)s1` registered a TGI of 82.6 µM.

`CCOC(=O)C1=C(C)NC(=S)NC1c1ccccc1` (stereo not drawn) displayed a TGI of more than 100 µM.

Regarding `CCC12C=CCN3CCC4(C(=C(C(=O)OC)[C@@H]1O)Nc1ccccc14)C32` (stereo partly drawn), the TGI turned out to be 2.71 µM.

As for `CC(=O)Nc1ccc(-c2nnc(SCC(=O)Nc3ccc([N+](=O)[O-])cc3)o2)cc1`, the concentration for total growth inhibition (TGI) stood at 29.5 µM.

A further assay concerns OVCAR-5 ovarian. The assay is described as follows: DTP human tumour cell line panel, 48 h.
On to `COc1cc([C@@H]2OCC3C(c4ccc5c(c4)OCO5)OCC32)cc(OC)c1OC` (stereo partly drawn), for which the TGI is more than 100 µM.
